In patent US4950602A, “Inhibition of lactate production by pyruvate adducts” (Cornell Research Foundation, Inc., priority 1987, dated 1990):
“Also recorded” adds a separate entry of the source.

Experiments:
[1] = biological target: T1, beef heart lactate dehydrogenase (Bos taurus, UniProt Q5E9B1); experiment: Inhibition of beef heart lactate dehydrogenase (NADH absorbance at 340 nm); assay type: biochemical, bovine; details: for Relative Activity (%) Beef Heart: 0.24 mM pyruvate, 0.1 mM NADH, pH 7.2, 25° C.
T1 construct: purchased Worthington Biochemical Corporation (Freehold, N.J.); host or cells: beef heart
T1 sequence (Q5E9B1 whole entry): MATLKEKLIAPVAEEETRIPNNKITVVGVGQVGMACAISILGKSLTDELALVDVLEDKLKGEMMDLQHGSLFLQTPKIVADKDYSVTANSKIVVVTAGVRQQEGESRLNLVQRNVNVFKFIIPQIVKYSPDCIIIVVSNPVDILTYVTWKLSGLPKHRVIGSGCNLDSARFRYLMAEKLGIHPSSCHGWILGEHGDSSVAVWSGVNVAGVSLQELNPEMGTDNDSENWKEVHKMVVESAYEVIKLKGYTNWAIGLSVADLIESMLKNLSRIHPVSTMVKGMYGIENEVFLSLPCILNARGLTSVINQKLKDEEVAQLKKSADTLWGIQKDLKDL
Description: (§1) Enzymes and enzyme assays. Rabbit muscle glyceraldehyde-3-phosphate dehydrogenase (80 U/mg: ammonium sulfate suspension), rabbit muscle glycerol-3-phosphate dehydrogenase (40 U/mg; ammonium sulfate suspension),beef liver glutamate dehydrogenase (120 U/mg: in 50% glycerol), mitochondrial pig heart malate dehydrogenase (1100 U/mg; in 50% glycerol) and yeast hexokinase (140 U/mg; ammonium sulfate suspension) were purchased from Boehringer Mannheim Corp. (Indianapolis). Beef heart lactate dehydrogenase (280 U/mg) was purchased from Worthington Biochemical Corporation (Freehold, N.J.). Porcine heart L-alanine aminotransferase (130 U/mg), rabbit muscle phosphofructokinase (140 U/mg; ammonium sulfate suspension), bovine heart α-ketoglutarate (8 U/mg) and pyruvate (5 U/mg) dehydrogenase complexes, sodium pyruvate, L-methionine-SR-sulfoximine, DL-vinylglycine, NAD^+, NADH and NAD^+ analogues (3-acetylpyridine, thionicotinamide, and 3-pyridinealdehyde adenine dinucleotides) were purchased from Sigma Chemical Company (St. Louis, Mo.).
(§2) Each of the enzymes was assayed by procedures in which change of absorbance at 340 nm due to NADH was followed essentially as described by Bergmeyer (1974, Methods of Enzymatic Analysis, 2nd Eng. Ed., Verlag Chemie Weinheim Academic Press, N.Y.) with the following exceptions. Phosphofructokinase was assayed according to the method of Lai et al (1984, J. Neurochem., 42:438-446). NAD^+ -linked isocitrate dehydrogenase was assayed as described by Lai and Clark (1976, Biochem. J., 154:423-432). Pyruvate and α-ketoglutarate dehydrogenase complexes were respectively assayed according to the methods of Lai and Sheu (1985, J. Neurochem., 45:1861-1868) and Lai and Cooper (1986) (J. Neurochem, 47:1376-1386).
The reaction mixture (1 ml) contained 0.24 mM sodium pyruvate, 0.1 mM
NADH, 100 mM potassium phosphate buffer (pH 7.2) and either purified
bovine heart lactate dehydrogenase (0.01 U) or rat brain homogenate
containing ~0.02 U of lactate dehydrogenase activity; 25° C.
Since APADpyruvate adduct and RAP have a tendency to revert to pyruvate
they were added to the reaction mixture just prior to addition of enzyme.
Because the kinetics obtained with tightbinding inhibitors depends on the
order of addition of substrates and inhibitors the enzyme was always adde
last. Each value is the average of at least 3 determinations. Each of the […]

[2] = biological target: T2, α-ketoglutarate dehydrogenase (Rattus norvegicus, UniProt Q5XI78+Q6P6R2); experiment: Rat brain α-ketoglutarate dehydrogenase with RAP; assay type: biochemical; details: 20 μM RAP
T2 construct: following enzymes in rat brain subcellular fractions: α-ketoglutarate; from tissue; host or cells: rat brain subcellular fractions
T2 sequence (Q5XI78 41-1023): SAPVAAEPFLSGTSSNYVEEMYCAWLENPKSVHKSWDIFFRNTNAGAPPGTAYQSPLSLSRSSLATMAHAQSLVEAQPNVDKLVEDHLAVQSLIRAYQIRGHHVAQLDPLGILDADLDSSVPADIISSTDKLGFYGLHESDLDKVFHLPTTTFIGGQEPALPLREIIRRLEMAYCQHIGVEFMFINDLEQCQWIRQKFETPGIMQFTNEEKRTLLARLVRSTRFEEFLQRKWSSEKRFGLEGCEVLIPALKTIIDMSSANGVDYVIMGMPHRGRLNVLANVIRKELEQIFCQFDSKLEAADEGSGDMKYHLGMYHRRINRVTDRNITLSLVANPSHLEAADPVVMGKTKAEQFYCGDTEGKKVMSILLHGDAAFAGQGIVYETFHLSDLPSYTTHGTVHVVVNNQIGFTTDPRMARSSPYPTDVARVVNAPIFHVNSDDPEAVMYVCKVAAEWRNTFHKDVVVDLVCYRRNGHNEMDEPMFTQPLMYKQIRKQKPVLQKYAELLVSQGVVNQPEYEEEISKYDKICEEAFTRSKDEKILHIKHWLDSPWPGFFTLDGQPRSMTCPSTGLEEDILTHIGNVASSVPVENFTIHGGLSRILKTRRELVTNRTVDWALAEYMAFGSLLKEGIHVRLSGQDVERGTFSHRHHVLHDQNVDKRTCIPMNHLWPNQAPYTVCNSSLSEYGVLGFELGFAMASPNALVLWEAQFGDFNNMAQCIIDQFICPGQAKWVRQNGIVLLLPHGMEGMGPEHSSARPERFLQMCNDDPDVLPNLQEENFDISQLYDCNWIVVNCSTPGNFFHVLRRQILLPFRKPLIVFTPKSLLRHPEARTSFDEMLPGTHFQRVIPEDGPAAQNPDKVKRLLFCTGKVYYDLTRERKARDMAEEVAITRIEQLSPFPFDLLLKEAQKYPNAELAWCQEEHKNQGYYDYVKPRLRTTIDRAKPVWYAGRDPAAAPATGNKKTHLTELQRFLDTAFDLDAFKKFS
T2 sequence (Q01205 69-454 partner): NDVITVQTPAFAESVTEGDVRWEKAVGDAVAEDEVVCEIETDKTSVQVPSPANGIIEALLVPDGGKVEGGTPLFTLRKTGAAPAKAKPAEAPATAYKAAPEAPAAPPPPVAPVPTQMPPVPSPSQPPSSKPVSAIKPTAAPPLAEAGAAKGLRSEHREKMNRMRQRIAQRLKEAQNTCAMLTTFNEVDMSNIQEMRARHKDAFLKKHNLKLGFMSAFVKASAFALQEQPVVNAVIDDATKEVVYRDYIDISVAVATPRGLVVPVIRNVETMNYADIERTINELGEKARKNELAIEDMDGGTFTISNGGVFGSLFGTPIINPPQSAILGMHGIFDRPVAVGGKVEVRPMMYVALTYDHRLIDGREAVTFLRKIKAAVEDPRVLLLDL
T2 sequence (Q6P6R2 36-509): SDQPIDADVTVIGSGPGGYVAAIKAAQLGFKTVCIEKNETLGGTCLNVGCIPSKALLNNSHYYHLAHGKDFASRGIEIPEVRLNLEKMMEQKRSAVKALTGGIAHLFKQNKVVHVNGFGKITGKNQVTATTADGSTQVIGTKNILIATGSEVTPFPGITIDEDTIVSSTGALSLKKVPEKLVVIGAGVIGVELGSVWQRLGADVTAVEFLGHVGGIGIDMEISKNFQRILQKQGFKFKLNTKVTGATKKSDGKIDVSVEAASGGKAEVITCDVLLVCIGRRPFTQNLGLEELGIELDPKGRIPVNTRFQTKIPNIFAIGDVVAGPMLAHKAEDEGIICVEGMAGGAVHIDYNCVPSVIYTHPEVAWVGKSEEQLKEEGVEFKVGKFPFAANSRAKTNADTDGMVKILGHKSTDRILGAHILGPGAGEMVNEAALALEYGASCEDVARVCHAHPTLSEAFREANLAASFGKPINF
Procedure: as §2

isocitrate dehydrogenase = biological target: T3, isocitrate dehydrogenase (Rattus norvegicus, UniProt Q99NA5); experiment: Rat brain isocitrate dehydrogenase with RAP; assay type: biochemical; details: 20 μM RAP
T3 construct: following enzymes in rat brain subcellular fractions: α-ketoglutarate, isocitrate; from tissue; host or cells: rat brain subcellular fractions
T3 sequence (Q99NA5 28-366): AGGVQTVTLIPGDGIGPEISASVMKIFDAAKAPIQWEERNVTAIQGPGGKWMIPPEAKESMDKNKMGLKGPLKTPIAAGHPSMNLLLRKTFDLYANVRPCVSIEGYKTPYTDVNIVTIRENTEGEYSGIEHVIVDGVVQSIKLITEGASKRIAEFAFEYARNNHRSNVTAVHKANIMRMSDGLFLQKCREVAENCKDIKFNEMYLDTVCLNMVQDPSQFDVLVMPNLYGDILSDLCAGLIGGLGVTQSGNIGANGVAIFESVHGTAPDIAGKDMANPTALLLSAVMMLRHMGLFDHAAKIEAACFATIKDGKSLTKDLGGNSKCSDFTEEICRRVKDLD
T3 sequence (Q68FX0 35-385 partner): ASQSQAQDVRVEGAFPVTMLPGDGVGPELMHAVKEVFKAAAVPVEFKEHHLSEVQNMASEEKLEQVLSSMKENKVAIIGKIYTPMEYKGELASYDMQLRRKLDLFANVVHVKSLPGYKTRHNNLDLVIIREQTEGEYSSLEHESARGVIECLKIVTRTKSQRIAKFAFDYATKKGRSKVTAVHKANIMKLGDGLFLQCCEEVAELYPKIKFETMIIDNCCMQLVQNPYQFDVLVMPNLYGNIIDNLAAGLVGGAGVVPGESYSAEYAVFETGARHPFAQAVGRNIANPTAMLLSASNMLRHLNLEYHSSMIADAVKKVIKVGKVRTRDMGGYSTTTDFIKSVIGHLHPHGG
T3 sequence (P41565 40-393 partner): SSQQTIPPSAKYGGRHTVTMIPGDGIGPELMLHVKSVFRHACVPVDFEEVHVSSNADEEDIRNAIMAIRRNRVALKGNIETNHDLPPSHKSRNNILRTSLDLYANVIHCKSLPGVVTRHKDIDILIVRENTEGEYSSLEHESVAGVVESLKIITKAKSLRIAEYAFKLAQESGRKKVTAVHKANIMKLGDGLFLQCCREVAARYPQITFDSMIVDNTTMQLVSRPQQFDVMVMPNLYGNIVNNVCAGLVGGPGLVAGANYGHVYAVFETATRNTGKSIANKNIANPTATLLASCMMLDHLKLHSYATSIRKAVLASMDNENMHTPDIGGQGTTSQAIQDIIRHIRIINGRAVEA
Procedure: as §2

[3] = biological target: T4, cytosolic malate dehydrogenase (Rattus norvegicus, UniProt O88989); experiment: Rat brain cytosolic (soluble) malate dehydrogenase with RAP; assay type: biochemical; details: 20 μM RAP
T4 construct: following enzymes in rat brain subcellular fractions: α-ketoglutarate, isocitrate and cytosolic malate dehydrogenases; from tissue; host or cells: rat brain subcellular fractions
T4 sequence (O88989 whole entry): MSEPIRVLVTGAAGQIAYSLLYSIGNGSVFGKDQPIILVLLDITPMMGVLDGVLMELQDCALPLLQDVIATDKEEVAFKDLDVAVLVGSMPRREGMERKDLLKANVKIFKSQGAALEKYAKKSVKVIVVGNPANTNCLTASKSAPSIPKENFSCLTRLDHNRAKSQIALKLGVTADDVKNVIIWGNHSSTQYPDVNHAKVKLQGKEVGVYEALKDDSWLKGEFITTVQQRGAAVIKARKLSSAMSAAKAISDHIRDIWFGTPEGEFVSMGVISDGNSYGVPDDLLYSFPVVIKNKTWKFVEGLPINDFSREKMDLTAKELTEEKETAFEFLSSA
Procedure: as §2

hexokinase = biological target: T5, hexokinase (Rattus norvegicus, UniProt P05708); experiment: Rat brain hexokinase with RAP; assay type: biochemical; details: 20 μM RAP
T5 construct: following enzymes in rat brain subcellular fractions: α-ketoglutarate, isocitrate and cytosolic malate dehydrogenases, and hexokinase; from tissue; host or cells: rat brain subcellular fractions
T5 sequence (P05708 whole entry): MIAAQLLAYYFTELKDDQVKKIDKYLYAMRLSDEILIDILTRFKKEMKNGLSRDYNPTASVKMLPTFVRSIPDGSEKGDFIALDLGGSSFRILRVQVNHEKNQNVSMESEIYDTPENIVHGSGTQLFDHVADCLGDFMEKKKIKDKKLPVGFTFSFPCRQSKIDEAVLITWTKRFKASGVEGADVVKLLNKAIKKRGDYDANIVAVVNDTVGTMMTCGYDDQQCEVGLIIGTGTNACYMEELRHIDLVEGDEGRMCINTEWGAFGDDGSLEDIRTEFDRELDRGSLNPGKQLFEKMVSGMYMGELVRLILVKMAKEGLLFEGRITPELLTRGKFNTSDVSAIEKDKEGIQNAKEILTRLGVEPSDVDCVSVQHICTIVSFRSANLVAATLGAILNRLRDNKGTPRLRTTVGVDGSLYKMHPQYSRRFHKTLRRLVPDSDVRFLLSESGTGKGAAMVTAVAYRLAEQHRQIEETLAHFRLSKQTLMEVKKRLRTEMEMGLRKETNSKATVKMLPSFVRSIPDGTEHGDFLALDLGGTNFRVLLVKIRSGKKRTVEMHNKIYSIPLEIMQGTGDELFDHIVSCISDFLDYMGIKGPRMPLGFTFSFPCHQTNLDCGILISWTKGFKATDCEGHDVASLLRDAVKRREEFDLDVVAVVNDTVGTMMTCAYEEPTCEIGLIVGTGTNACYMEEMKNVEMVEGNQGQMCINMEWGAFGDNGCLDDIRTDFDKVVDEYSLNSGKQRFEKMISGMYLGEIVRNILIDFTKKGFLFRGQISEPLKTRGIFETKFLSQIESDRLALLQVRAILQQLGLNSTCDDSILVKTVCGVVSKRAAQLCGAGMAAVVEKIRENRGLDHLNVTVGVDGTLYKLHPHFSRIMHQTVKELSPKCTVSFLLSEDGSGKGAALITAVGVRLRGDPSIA
Procedure: as §2

[4] = biological target: T6, bovine heart pyruvate dehydrogenase complex (Bos taurus, UniProt A7MB35+F1N206+P11966); experiment: Purified bovine heart pyruvate dehydrogenase complex with RAP; assay type: biochemical; details: 20 μM RAP
T6 construct: overall NADH-forming activity assayed at 340 nm
Description: as §1
(§3) Each of the enzymes was assayed by procedures in which change of absorbance at 340 nm due to NADH was followed essentially as described by Bergmeyer (1974, Methods of Enzymatic Analysis, 2nd Eng. Ed., Verlag Chemie Weinheim Academic Press, N.Y.) with the following exceptions. […]

[5] = biological target: T7, bovine heart α-ketoglutarate dehydrogenase complex (Bos taurus, UniProt F1N206); experiment: Purified bovine heart α-ketoglutarate dehydrogenase complex with RAP; assay type: biochemical; details: 20 μM RAP
T7 construct: purchased Sigma Chemical Company (St. Louis, Mo.); host or cells: bovine heart
Description: as §1, §3

[6] = biological target: T8, mitochondrial malate dehydrogenase (Rattus norvegicus, UniProt P04636); experiment: Rat brain mitochondrial malate dehydrogenase with RAP; assay type: biochemical; details: 20 μM RAP
T8 construct: Commercial and rat brain glutamate dehydrogenases and mitochondrial malate dehydrogenases were only slightly; from tissue; host or cells: rat brain
T8 sequence (P04636 25-338): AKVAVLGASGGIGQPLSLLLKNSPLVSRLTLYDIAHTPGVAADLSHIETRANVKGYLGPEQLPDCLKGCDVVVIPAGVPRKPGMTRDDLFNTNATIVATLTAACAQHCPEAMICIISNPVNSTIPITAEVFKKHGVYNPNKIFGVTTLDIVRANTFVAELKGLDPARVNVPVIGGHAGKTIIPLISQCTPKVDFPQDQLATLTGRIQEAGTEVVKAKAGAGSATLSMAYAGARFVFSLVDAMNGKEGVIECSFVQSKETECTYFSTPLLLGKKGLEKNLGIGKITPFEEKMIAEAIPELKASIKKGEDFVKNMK
Procedure: as §2

phosphofructokinase = experiment: Rat brain phosphofructokinase with RAP; assay type: biochemical; details: 20 μM RAP
Procedure: as §2

lactate dehydrogenase = experiment: Determination of inactive E.RAP enzyme complex; assay type: biochemical, rat; details: 2 μM initial concentration

Nc1ncnc2c1ncn2[C@@H]1O[C@H](COP(=O)(O)OP(=O)(O)OC[C@H]2O[C@@H](N3C=CC(CC(=O)C(=O)O)C(C=O)=C3)[C@H](O)[C@@H]2O)[C@@H](O)[C@H]1O (stereo partly drawn) [RAP, 3(-4-(reduced 3-pyridinealdehyde-adeninedinucleotide))-pyruvate]
Ki ([1]; Ki for the A form, A isomer at the 4 position, taken as half of the mixture, calculated from Table 1 data): 1.3 nM | Ki ([1]; Ki, calculated from Table 1 data with Km for NADH 2.5 μM, standard equation for a competitive inhibitor): 2.6 nM | Relative Activity (%) Beef Heart ([1]; additive 42 nM): 79% | Relative Activity (%) Beef Heart ([1]; additive 84 nM): 58% | Relative Activity (%) Beef Heart ([1]; additive 132 nM): 40% | Relative Activity (%) Beef Heart ([1]; additive 180 nM): 29% | potency as inhibitor of lactate dehydrogenase relative to the NAD-pyruvate adduct ([1]; from Table 1): ~ 1000 fold | type of inhibition with respect to pyruvate ([1]; suggested by the 2.4 mM pyruvate finding): noncompetitive inhibitor with respect to pyruvate | effect on rat brain α-ketoglutarate dehydrogenase [2]: little or no effect; also recorded: did not inhibit | effect on rat brain isocitrate dehydrogenase (isocitrate dehydrogenase): little or no effect; also recorded: did not inhibit | effect on rat brain cytosolic (soluble) malate dehydrogenase [3]: little or no effect; also recorded: did not inhibit | effect on rat brain hexokinase (hexokinase): similarly unaffected; also recorded: did not inhibit | effect on purified bovine heart pyruvate dehydrogenase complex [4]: nor did 20 μM RAP inhibit | effect on purified bovine heart α-ketoglutarate dehydrogenase complex [5]: nor did 20 μM RAP inhibit | effect on rat brain mitochondrial malate dehydrogenase [6]: little or no effect | inhibition at 20 µM [6]: ≤ 20% | effect on rat brain phosphofructokinase (phosphofructokinase): similarly unaffected | enzyme tied up as the inactive E.RAP complex (lactate dehydrogenase): approximately 90%
